Data published in PMC5218480 (PLoS ONE, 2017).

Tested on: MV-4-11 cells
Test: Gene expression microarray analysis (Affymetrix PrimeView) and GSEA
Assay type: cell-based, human
Design: RFU PODN (11730768_x_at) / Fold change /veh PODN (11730768_x_at) / RFU LINC00158 (11744669_a_at) / Fold change /veh LINC00158 (11744669_a_at) / RFU DUSP10 (11751237_a_at) / Fold change /veh DUSP10 (11751237_a_at) / RFU ID3 (11757404_x_at) / Fold change /veh ID3 (11757404_x_at) / RFU PLEKHG5 (11737974_s_at) / Fold change /veh PLEKHG5 (11737974_s_at) / RFU LRRC4B (11730491_at) / Fold change /veh LRRC4B (11730491_at) / RFU GIMAP4 (11747438_a_at) / Fold change /veh GIMAP4 (11747438_a_at) / RFU KRT8 (11758183_x_at) / Fold change /veh KRT8 (11758183_x_at) / RFU CNN1 (11734310_a_at) / Fold change /veh CNN1 (11734310_a_at) / RFU VPS37D (11726825_at) / Fold change /veh VPS37D (11726825_at) / RFU C10orf10 (11716522_x_at) / Fold change /veh C10orf10 (11716522_x_at) / RFU KIR2DL2 /// KIR2DL4 /// KIR2DL5A /// KIR2DL5B /// KIR2DS1 /// KIR2DS2 /// KIR2DS3 /// KIR2DS4 /// KIR3DL3 /// KIR3DL3 /// KIR3DS1 (11738374_at) / Fold change /veh KIR2DL2 /// KIR2DL4 /// KIR2DL5A /// KIR2DL5B /// KIR2DS1 /// KIR2DS2 /// KIR2DS3 /// KIR2DS4 /// KIR3DL3 /// KIR3DL3 /// KIR3DS1 (11738374_at) / RFU C1QL1 (11718748_at) / Fold change /veh C1QL1 (11718748_at) / RFU TMPRSS4 (11747572_a_at) / Fold change /veh TMPRSS4 (11747572_a_at) / RFU HAMP (11756126_x_at) / Fold change /veh HAMP (11756126_x_at) / RFU RNFT2 (11725882_a_at) / Fold change /veh RNFT2 (11725882_a_at) / RFU NR4A2 (11747474_a_at) / Fold change /veh NR4A2 (11747474_a_at) / RFU ABCC12 (11746883_a_at) / Fold change /veh ABCC12 (11746883_a_at) / RFU TMEM136 (11760407_x_at) / Fold change /veh TMEM136 (11760407_x_at) / RFU CLDN22 /// WWC2 (11732394_at) / Fold change /veh CLDN22 /// WWC2 (11732394_at) / RFU HLA-DPB1 (11760878_x_at) / Fold change /veh HLA-DPB1 (11760878_x_at) / RFU SPINT1 (11716480_a_at) / Fold change /veh SPINT1 (11716480_a_at) / RFU GAP43 (11754022_s_at) / Fold change /veh GAP43 (11754022_s_at) / RFU A4GNT (11735810_at) / Fold change /veh A4GNT (11735810_at) / RFU PRB3 (11715151_x_at) / Fold change /veh PRB3 (11715151_x_at) / RFU TUBB4B (11761932_at) / Fold change /veh TUBB4B (11761932_at) / RFU CAPN14 (11732068_a_at) / Fold change /veh CAPN14 (11732068_a_at) / RFU TMCC2 (11721928_a_at) / Fold change /veh TMCC2 (11721928_a_at) / RFU IRGQ (11745062_a_at) / Fold change /veh IRGQ (11745062_a_at) / RFU FAM174B (11720279_a_at) / Fold change /veh FAM174B (11720279_a_at) / RFU TMPRSS4 (11748680_a_at) / Fold change /veh TMPRSS4 (11748680_a_at) / RFU FAM212B (11763350_a_at) / Fold change /veh FAM212B (11763350_a_at) / RFU PLEKHG5 (11743358_a_at) / Fold change /veh PLEKHG5 (11743358_a_at) / RFU ZSCAN30 (11745921_a_at) / Fold change /veh ZSCAN30 (11745921_a_at) / RFU CMKLR1 (11741424_a_at) / Fold change /veh CMKLR1 (11741424_a_at) / RFU LOC101060620 /// MAPK8IP1 (11723275_at) / Fold change /veh LOC101060620 /// MAPK8IP1 (11723275_at) / RFU SPTSSB (11747773_x_at) / Fold change /veh SPTSSB (11747773_x_at) / RFU PRSS12 (11739890_at) / Fold change /veh PRSS12 (11739890_at) / RFU BIN1 (11741810_x_at) / Fold change /veh BIN1 (11741810_x_at) / RFU WNT11 (11732464_a_at) / Fold change /veh WNT11 (11732464_a_at) / RFU C10orf10 (11716521_a_at) / Fold change /veh C10orf10 (11716521_a_at) / RFU C5orf56 (11738089_at) / Fold change /veh C5orf56 (11738089_at) / RFU CYB561 (11721691_x_at) / Fold change /veh CYB561 (11721691_x_at) / RFU ANKRD19P (11752326_a_at) / Fold change /veh ANKRD19P (11752326_a_at) / RFU OR2T12 /// OR2T33 /// OR2T8 (11738714_s_at) / Fold change /veh OR2T12 /// OR2T33 /// OR2T8 (11738714_s_at) / RFU VCAN (11748164_a_at) / Fold change /veh VCAN (11748164_a_at) / RFU JSRP1 (11732532_at) / Fold change /veh JSRP1 (11732532_at) / RFU KRTAP10-11 (11738290_x_at) / Fold change /veh KRTAP10-11 (11738290_x_at) / RFU MYO3A (11730013_a_at) / Fold change /veh MYO3A (11730013_a_at) / RFU EBF3 (11725865_a_at) / Fold change /veh EBF3 (11725865_a_at) / RFU CAMK2N1 (11719241_x_at) / Fold change /veh CAMK2N1 (11719241_x_at) / RFU C5orf56 (11738088_a_at) / Fold change /veh C5orf56 (11738088_a_at) / RFU OLFML3 (11715873_a_at) / Fold change /veh OLFML3 (11715873_a_at) / RFU LOC100653217 /// NTM (11731650_a_at) / Fold change /veh LOC100653217 /// NTM (11731650_a_at) / RFU MAPK11 (11762145_a_at) / Fold change /veh MAPK11 (11762145_a_at) / RFU FIZ1 (11724087_x_at) / Fold change /veh FIZ1 (11724087_x_at) / RFU OASL (11726364_x_at) / Fold change /veh OASL (11726364_x_at) / RFU SOX15 (11748057_x_at) / Fold change /veh SOX15 (11748057_x_at) / RFU CD79A (11719716_a_at) / Fold change /veh CD79A (11719716_a_at) / RFU HIST1H1D (11736915_at) / Fold change /veh HIST1H1D (11736915_at) / RFU CASKIN2 (11723855_a_at) / Fold change /veh CASKIN2 (11723855_a_at) / RFU LOC730098 (11760151_x_at) / Fold change /veh LOC730098 (11760151_x_at) / RFU OR4N2 (11742367_at) / Fold change /veh OR4N2 (11742367_at) / RFU PRRT2 (11749266_a_at) / Fold change /veh PRRT2 (11749266_a_at) / RFU SNX32 (11753110_a_at) / Fold change /veh SNX32 (11753110_a_at) / RFU CDHR5 (11726645_a_at) / Fold change /veh CDHR5 (11726645_a_at) / RFU RCAN1 (11760418_a_at) / Fold change /veh RCAN1 (11760418_a_at) / RFU FAM167A (11723789_a_at) / Fold change /veh FAM167A (11723789_a_at) / RFU FAM26E (11764081_at) / Fold change /veh FAM26E (11764081_at) / RFU ISYNA1 (11749810_s_at) / Fold change /veh ISYNA1 (11749810_s_at) / RFU ACY1 (11761880_at) / Fold change /veh ACY1 (11761880_at) / RFU 11764098_at / Fold change /veh 11764098_at / RFU SAMD14 (11745864_x_at) / Fold change /veh SAMD14 (11745864_x_at) / RFU NPB (11741838_a_at) / Fold change /veh NPB (11741838_a_at) / RFU TMPRSS6 (11731388_a_at) / Fold change /veh TMPRSS6 (11731388_a_at) / RFU KRTAP10-2 (11738614_at) / Fold change /veh KRTAP10-2 (11738614_at) / RFU ARHGAP8 /// PRR5-ARHGAP8 (11727945_x_at) / Fold change /veh ARHGAP8 /// PRR5-ARHGAP8 (11727945_x_at) / RFU KRTAP5-7 /// NADSYN1 (11734609_at) / Fold change /veh KRTAP5-7 /// NADSYN1 (11734609_at) / RFU RASL12 (11751679_a_at) / Fold change /veh RASL12 (11751679_a_at) / RFU CDKN2B (11736163_a_at) / Fold change /veh CDKN2B (11736163_a_at) / RFU PRF1 (11729649_at) / Fold change /veh PRF1 (11729649_at) / RFU, ZNF638 /// ZNF638-IT1 / Fold change vs veh, ZNF638 /// ZNF638-IT1 / RFU, PANK3 / Fold change vs veh, PANK3 / RFU, SH3YL1 / Fold change vs veh, SH3YL1 / RFU, ZEB2 / Fold change vs veh, ZEB2 / RFU, NRIP1 / Fold change vs veh, NRIP1 / RFU, PTTG1IP / Fold change vs veh, PTTG1IP / RFU, CAPN2 / Fold change vs veh, CAPN2 / RFU, MED14 / Fold change vs veh, MED14 / RFU, SNORA58 / Fold change vs veh, SNORA58 / RFU, C1orf63 / Fold change vs veh, C1orf63 / RFU, LRRFIP1 / Fold change vs veh, LRRFIP1 / RFU, NDUFAF7 / Fold change vs veh, NDUFAF7 / RFU, SLC12A2 / Fold change vs veh, SLC12A2 / RFU, IBTK / Fold change vs veh, IBTK / RFU, ESF1 / Fold change vs veh, ESF1 / Fold change vs veh, TMEM50B / RFU, TAOK1 / Fold change vs veh, TAOK1 / RFU, ACBD3 / Fold change vs veh, ACBD3 / RFU, TMA16 / Fold change vs veh, TMA16 / RFU, RWDD3 / Fold change vs veh, RWDD3 / RFU, BCAT1 / Fold change vs veh, BCAT1 / RFU, EDEM3 / Fold change vs veh, EDEM3 / RFU, TMEM33 / Fold change vs veh, TMEM33 / RFU, WDR75 / Fold change vs veh, WDR75 / RFU, AHCTF1 / Fold change vs veh, AHCTF1 / RFU, TFRC / Fold change vs veh, TFRC / RFU, ZDHHC17 / Fold change vs veh, ZDHHC17 / RFU, NOM1 / Fold change vs veh, NOM1 / RFU, ARL8B / Fold change vs veh, ARL8B / RFU, ZBTB11 / Fold change vs veh, ZBTB11 / RFU, TAMM41 / Fold change vs veh, TAMM41 / RFU, KIAA1704 /// LOC100996395 / Fold change vs veh, KIAA1704 /// LOC100996395 / RFU, ING1 / Fold change vs veh, ING1 / RFU, TRMT61B / Fold change vs veh, TRMT61B / RFU, FUBP3 / Fold change vs veh, FUBP3 / RFU, TP53 / Fold change vs veh, TP53 / RFU, TNKS2 / Fold change vs veh, TNKS2 / RFU, ZFP14 / Fold change vs veh, ZFP14 / RFU, ACTR2 / Fold change vs veh, ACTR2 / RFU, PPP3R1 / Fold change vs veh, PPP3R1 / RFU, PIK3R1 / Fold change vs veh, PIK3R1 / RFU, HNRNPA1 / Fold change vs veh, HNRNPA1 / RFU, RNF170 / Fold change vs veh, RNF170 / RFU, ZNF28 / Fold change vs veh, ZNF28 / RFU, RNGTT / Fold change vs veh, RNGTT / RFU, OGT / Fold change vs veh, OGT / RFU, BRD1 / Fold change vs veh, BRD1 / RFU, MARS / Fold change vs veh, MARS / RFU, ZNF655 / Fold change vs veh, ZNF655 / RFU, FAHD1 / Fold change vs veh, FAHD1 / RFU, BDP1 / Fold change vs veh, BDP1 / RFU, LRRCC1 / Fold change vs veh, LRRCC1 / RFU, ARID1A / Fold change vs veh, ARID1A / RFU, ZNF146 / Fold change vs veh, ZNF146 / RFU, ZNF330 / Fold change vs veh, ZNF330 / RFU, GPN3 / Fold change vs veh, GPN3 / RFU, C9orf123 / Fold change vs veh, C9orf123 / RFU, N4BP2L2 / Fold change vs veh, N4BP2L2 / RFU, ARFIP1 / Fold change vs veh, ARFIP1 / RFU, FAM179B / Fold change vs veh, FAM179B / RFU, BCL10 / Fold change vs veh, BCL10 / RFU, UHRF1BP1L / Fold change vs veh, UHRF1BP1L / RFU, BET1 / Fold change vs veh, BET1 / RFU, CNOT2 / Fold change vs veh, CNOT2 / RFU, ZNF268 / Fold change vs veh, ZNF268 / Fold change vs veh, ZNF507 / RFU, DGCR2 / Fold change vs veh, DGCR2 / RFU, WDSUB1 / Fold change vs veh, WDSUB1 / Fold change vs veh, HSP90B1 /// MIR3652 / RFU, ADSS / Fold change vs veh, ADSS / RFU, GK / Fold change vs veh, GK / RFU, ZNF148 / Fold change vs veh, ZNF148 / RFU, TAF9 / Fold change vs veh, TAF9 / RFU, SLC1A5 / Fold change vs veh, SLC1A5 / RFU, SLMO2 / Fold change vs veh, SLMO2 / RFU, ABCC4 / Fold change vs veh, ABCC4 / RFU, LOC101060439 /// RAP1B / Fold change vs veh, LOC101060439 /// RAP1B / RFU, RFX7 / Fold change vs veh, RFX7 / RFU, GTPBP10 / Fold change vs veh, GTPBP10 / RFU, CNEP1R1 / Fold change vs veh, CNEP1R1 / RFU, BIVM-ERCC5 /// ERCC5 / Fold change vs veh, BIVM-ERCC5 /// ERCC5 / RFU, ILF3 / Fold change vs veh, ILF3 / RFU 11762660_at / Fold change /veh 11762660_at / RFU VCAN (11757783_s_at) / Fold change /veh VCAN (11757783_s_at) / RFU DDX43 (11728927_at) / Fold change /veh DDX43 (11728927_at) / RFU KRT8 (11758188_x_at) / Fold change /veh KRT8 (11758188_x_at) / RFU NKD1 (11759106_at) / Fold change /veh NKD1 (11759106_at) / RFU SRD5A1 (11742802_a_at) / Fold change /veh SRD5A1 (11742802_a_at) / RFU TPSAB1 /// TPSB2 (11721975_s_at) / Fold change /veh TPSAB1 /// TPSB2 (11721975_s_at) / RFU GSTM3 (11746129_a_at) / Fold change /veh GSTM3 (11746129_a_at) / RFU IL23R (11737362_x_at) / Fold change /veh IL23R (11737362_x_at) / RFU TMEM51 (11727254_a_at) / Fold change /veh TMEM51 (11727254_a_at) / RFU PIWIL2 (11732686_x_at) / Fold change /veh PIWIL2 (11732686_x_at) / RFU ORM1 (11744905_x_at) / Fold change /veh ORM1 (11744905_x_at) / RFU CCDC152 (11743942_at) / Fold change /veh CCDC152 (11743942_at) / RFU ECM1 (11717891_a_at) / Fold change /veh ECM1 (11717891_a_at) / RFU IL23R (11748794_a_at) / Fold change /veh IL23R (11748794_a_at) / RFU TNFAIP8L3 (11732012_x_at) / Fold change /veh TNFAIP8L3 (11732012_x_at) / RFU MBOAT4 (11741988_at) / Fold change /veh MBOAT4 (11741988_at) / RFU 11764193_at / Fold change /veh 11764193_at / RFU TMEM53 (11763286_at) / Fold change /veh TMEM53 (11763286_at) / RFU MAGEB2 (11727129_at) / Fold change /veh MAGEB2 (11727129_at) / RFU TMEM200A (11744735_a_at) / Fold change /veh TMEM200A (11744735_a_at) / RFU CCDC152 (11751479_a_at) / Fold change /veh CCDC152 (11751479_a_at) / RFU FAM211A (11726209_a_at) / Fold change /veh FAM211A (11726209_a_at) / RFU RGS16 (11746705_a_at) / Fold change /veh RGS16 (11746705_a_at) / RFU VCAN (11755009_s_at) / Fold change /veh VCAN (11755009_s_at) / RFU RHOB (11743442_s_at) / Fold change /veh RHOB (11743442_s_at) / RFU RGS16 (11720943_a_at) / Fold change /veh RGS16 (11720943_a_at) / RFU RGS16 (11720944_at) / Fold change /veh RGS16 (11720944_at) / RFU, VPS4B / Fold change vs veh, VPS4B / RFU, CREB1 / Fold change vs veh, CREB1 / RFU, DNAJC13 / Fold change vs veh, DNAJC13 / RFU, GNAQ / Fold change vs veh, GNAQ / RFU, CDK5R1 / Fold change vs veh, CDK5R1 / RFU, ZRANB3 / Fold change vs veh, ZRANB3 / RFU, CUL4A / Fold change vs veh, CUL4A / RFU, CCNY / Fold change vs veh, CCNY / RFU, UFL1 / Fold change vs veh, UFL1 / RFU, COG3 / Fold change vs veh, COG3 / RFU, DIAPH2 / Fold change vs veh, DIAPH2 / RFU, SKA2 / Fold change vs veh, SKA2 / RFU, AFF3 / Fold change vs veh, AFF3 / RFU, LMF1 / Fold change vs veh, LMF1 / RFU, IPO11 / Fold change vs veh, IPO11 / RFU, DFFB / Fold change vs veh, DFFB / RFU, FOXP1 / Fold change vs veh, FOXP1 / RFU, CARD8 / Fold change vs veh, CARD8 / RFU, STRN3 / Fold change vs veh, STRN3 / RFU, ADK / Fold change vs veh, ADK / RFU, RASSF2 / Fold change vs veh, RASSF2 / RFU, WIPF1 / Fold change vs veh, WIPF1 / RFU, LARP1B / Fold change vs veh, LARP1B / RFU, RASA1 / Fold change vs veh, RASA1 / RFU, RB1 / Fold change vs veh, RB1 / RFU, PPFIA1 / Fold change vs veh, PPFIA1 / RFU, MAT2A / Fold change vs veh, MAT2A / RFU, CCT5 / Fold change vs veh, CCT5 / RFU, WDR92 / Fold change vs veh, WDR92 / RFU, CUX1 / Fold change vs veh, CUX1 / RFU, TTC7A / Fold change vs veh, TTC7A / RFU, TMEM135 / Fold change vs veh, TMEM135 / RFU, DEPTOR / Fold change vs veh, DEPTOR / RFU, CPM / Fold change vs veh, CPM / RFU, DNAJB6 / Fold change vs veh, DNAJB6 / RFU, CACNA2D3 / Fold change vs veh, CACNA2D3 / RFU, DTX4 / Fold change vs veh, DTX4 / RFU, TFCP2 / Fold change vs veh, TFCP2 / RFU, GMCL1 /// GMCL1P1 / Fold change vs veh, GMCL1 /// GMCL1P1 / RFU, AEBP2 / Fold change vs veh, AEBP2 / RFU, SNHG1 /// SNORD22 /// SNORD25 /// SNORD26 /// SNORD27 /// SNORD28 /// SNORD29 /// SNORD31 / Fold change vs veh, SNHG1 /// SNORD22 /// SNORD25 /// SNORD26 /// SNORD27 /// SNORD28 /// SNORD29 /// SNORD31 / Fold change (Aza/veh), C12orf56 (ProbeSet 11735607_a_at) / Fold change (ACY-1035/veh), C12orf56 (ProbeSet 11735607_a_at) / Fold change (Aza/veh), FGFR1OP (ProbeSet 11751329_s_at) / Fold change (ACY-1035/veh), FGFR1OP (ProbeSet 11751329_s_at) / Fold change (Aza/veh), VPS36 (ProbeSet 11739960_a_at) / Fold change (ACY-1035/veh), VPS36 (ProbeSet 11739960_a_at) / RFU SYPL1 (11715823_x_at) / Fold change /veh SYPL1 (11715823_x_at) / RFU IGFBP7 (11715501_s_at) / Fold change /veh IGFBP7 (11715501_s_at) / RFU REEP3 (11722064_at) / Fold change /veh REEP3 (11722064_at) / RFU IGLL1 (11728026_x_at) / Fold change /veh IGLL1 (11728026_x_at): dose or concentration left out as unconfirmed
Conditions: ProbeSet 11745789_a_at; LIST D

With `Nc1ncn([C@@H]2O[C@H](CO)[C@@H](O)[C@H]2O)c(=O)n1` [azacitidine] the “RFU, TMEM135” value was 108.05 RFU.
